# Laboratory results: the OligoGym collection
# Several values for one entry are separate records, joined by “and”; a condition that tells them apart may be missing. Equal values may be shown once. HELM strings list units from the 5' end as sugar, base in round brackets, then linkage (d deoxyribose, r ribose, m 2'-O-methyl, p phosphodiester). Strings are as the collection lists them, not checked against the first reports. ss, as = sense and antisense strand; [lna] = locked nucleic acid (LNA)
# Conditions: siRNA
# Also: test system not given here.
row,Substance,target mRNA knockdown
1,RNA1{r(C)p.r(U)p.r(U)p.r(A)p.r(C)p.r(G)p.r(C)p.r(U)p.r(G)p.r(A)p.r(G)p.r(U)p.r(A)p.r(C)p.r(U)p.r(U)p.r(C)p.r(G)p.r(A)p.r(T)p.r(T)}|RNA2{r(T)p.r(C)p.r(G)p.r(A)p.r(A)p.r(G)p.r(U)p.r(A)p.r(C)p.[lna](T)p.r(C)p.r(A)p.r(G)p.r(C)p.r(G)p.r(U)p.r(A)p.r(A)p.r(G)p.[lna](T)p.[lna](T)}$$$RNA1{StrandType:ss}|RNA2{StrandType:as}$,60%
2,RNA1{r(C)p.r(U)p.r(U)p.r(A)p.r(C)p.r(G)p.r(C)p.r(U)p.r(G)p.r(A)p.r(G)p.r(U)p.r(A)p.r(C)p.r(U)p.r(U)p.r(C)p.r(G)p.r(A)p.r(T)p.r(T)}|RNA2{r(T)p.r(C)p.r(G)p.r(A)p.r(A)p.r(G)p.r(U)p.r(A)p.r(C)p.r(U)p.r(C)p.[lna](A)p.r(G)p.r(C)p.r(G)p.r(U)p.r(A)p.r(A)p.r(G)p.[lna](T)p.[lna](T)}$$$RNA1{StrandType:ss}|RNA2{StrandType:as}$,70% and 94%
3,RNA1{r(C)p.r(U)p.r(U)p.r(A)p.r(C)p.r(G)p.r(C)p.r(U)p.r(G)p.r(A)p.r(G)p.r(U)p.r(A)p.r(C)p.r(U)p.r(U)p.r(C)p.r(G)p.r(A)p.r(T)p.r(T)}|RNA2{r(T)p.r(C)p.r(G)p.r(A)p.r(A)p.r(G)p.r(U)p.r(A)p.r(C)p.r(U)p.r(C)p.r(A)p.r(G)p.r(C)p.[lna](G)p.r(U)p.r(A)p.r(A)p.r(G)p.[lna](T)p.[lna](T)}$$$RNA1{StrandType:ss}|RNA2{StrandType:as}$,87%
4,RNA1{r(C)p.r(U)p.r(U)p.r(A)p.r(C)p.r(G)p.r(C)p.r(U)p.r(G)p.r(A)p.r(G)p.r(U)p.r(A)p.r(C)p.r(U)p.r(U)p.r(C)p.r(G)p.r(A)p.r(T)p.r(T)}|RNA2{r(T)p.r(C)p.r(G)p.r(A)p.r(A)p.r(G)p.r(U)p.r(A)p.r(C)p.r(U)p.r(C)p.r(A)p.r(G)p.r(C)p.r(G)p.[lna](T)p.r(A)p.r(A)p.r(G)p.[lna](T)p.[lna](T)}$$$RNA1{StrandType:ss}|RNA2{StrandType:as}$,83%
5,RNA1{r(C)p.r(U)p.r(U)p.r(A)p.r(C)p.r(G)p.r(C)p.r(U)p.r(G)p.r(A)p.r(G)p.r(U)p.r(A)p.r(C)p.r(U)p.r(U)p.r(C)p.r(G)p.r(A)p.r(T)p.r(T)}|RNA2{r(T)p.r(C)p.r(G)p.r(A)p.r(A)p.r(G)p.r(U)p.r(A)p.r(C)p.r(U)p.r(C)p.r(A)p.r(G)p.r(C)p.r(G)p.r(U)p.[lna](A)p.r(A)p.r(G)p.[lna](T)p.[lna](T)}$$$RNA1{StrandType:ss}|RNA2{StrandType:as}$,96%
6,RNA1{r(C)p.r(U)p.r(U)p.r(A)p.r(C)p.r(G)p.r(C)p.r(U)p.r(G)p.r(A)p.r(G)p.r(U)p.r(A)p.r(C)p.r(U)p.r(U)p.r(C)p.r(G)p.r(A)p.r(T)p.r(T)}|RNA2{r(T)p.r(C)p.r(G)p.r(A)p.r(A)p.r(G)p.r(U)p.r(A)p.r(C)p.r(U)p.r(C)p.r(A)p.r(G)p.r(C)p.r(G)p.r(U)p.r(A)p.[lna](A)p.r(G)p.[lna](T)p.[lna](T)}$$$RNA1{StrandType:ss}|RNA2{StrandType:as}$,95%
7,RNA1{r(C)p.r(U)p.r(U)p.r(A)p.r(C)p.r(G)p.r(C)p.r(U)p.r(G)p.r(A)p.r(G)p.r(U)p.r(A)p.r(C)p.r(U)p.r(U)p.r(C)p.r(G)p.r(A)p.r(T)p.r(T)}|RNA2{r(T)p.r(C)p.r(G)p.r(A)p.r(A)p.r(G)p.r(U)p.r(A)p.r(C)p.r(U)p.r(C)p.r(A)p.r(G)p.r(C)p.r(G)p.r(U)p.r(A)p.r(A)p.[lna](G)p.[lna](T)p.[lna](T)}$$$RNA1{StrandType:ss}|RNA2{StrandType:as}$,92%
8,RNA1{r(C)p.r(U)p.r(U)p.r(A)p.r(C)p.r(G)p.r(C)p.r(U)p.r(G)p.r(A)p.r(G)p.r(U)p.r(A)p.r(C)p.r(U)p.r(U)p.r(C)p.r(G)p.r(A)p.r(T)p.r(T)}|RNA2{r(U)p.[lna](C)p.r(G)p.r(A)p.r(A)p.r(G)p.r(U)p.r(A)p.r(C)p.r(U)p.r(C)p.r(A)p.r(G)p.r(C)p.r(G)p.r(U)p.r(A)p.r(A)p.r(G)p.r(T)p.r(T)}$$$RNA1{StrandType:ss}|RNA2{StrandType:as}$,0%
9,RNA1{r(C)p.r(U)p.r(U)p.r(A)p.r(C)p.r(G)p.r(C)p.r(U)p.r(G)p.r(A)p.r(G)p.r(U)p.r(A)p.r(C)p.r(U)p.r(U)p.r(C)p.r(G)p.r(A)p.r(T)p.r(T)}|RNA2{r(U)p.r(C)p.[lna](G)p.r(A)p.r(A)p.r(G)p.r(U)p.r(A)p.r(C)p.r(U)p.r(C)p.r(A)p.r(G)p.r(C)p.r(G)p.r(U)p.r(A)p.r(A)p.r(G)p.r(T)p.r(T)}$$$RNA1{StrandType:ss}|RNA2{StrandType:as}$,82%
10,RNA1{r(C)p.r(U)p.r(U)p.r(A)p.r(C)p.r(G)p.r(C)p.r(U)p.r(G)p.r(A)p.r(G)p.r(U)p.r(A)p.r(C)p.r(U)p.r(U)p.r(C)p.r(G)p.r(A)p.r(T)p.r(T)}|RNA2{r(U)p.r(C)p.r(G)p.[lna](A)p.r(A)p.r(G)p.r(U)p.r(A)p.r(C)p.r(U)p.r(C)p.r(A)p.r(G)p.r(C)p.r(G)p.r(U)p.r(A)p.r(A)p.r(G)p.r(T)p.r(T)}$$$RNA1{StrandType:ss}|RNA2{StrandType:as}$,85%
11,RNA1{r(C)p.r(U)p.r(U)p.r(A)p.r(C)p.r(G)p.r(C)p.r(U)p.r(G)p.r(A)p.r(G)p.r(U)p.r(A)p.r(C)p.r(U)p.r(U)p.r(C)p.r(G)p.r(A)p.r(T)p.r(T)}|RNA2{r(U)p.r(C)p.r(G)p.r(A)p.[lna](A)p.r(G)p.r(U)p.r(A)p.r(C)p.r(U)p.r(C)p.r(A)p.r(G)p.r(C)p.r(G)p.r(U)p.r(A)p.r(A)p.r(G)p.r(T)p.r(T)}$$$RNA1{StrandType:ss}|RNA2{StrandType:as}$,83%
12,RNA1{r(C)p.r(U)p.r(U)p.r(A)p.r(C)p.r(G)p.r(C)p.r(U)p.r(G)p.r(A)p.r(G)p.r(U)p.r(A)p.r(C)p.r(U)p.r(U)p.r(C)p.r(G)p.r(A)p.r(T)p.r(T)}|RNA2{r(U)p.r(C)p.r(G)p.r(A)p.r(A)p.[lna](G)p.r(U)p.r(A)p.r(C)p.r(U)p.r(C)p.r(A)p.r(G)p.r(C)p.r(G)p.r(U)p.r(A)p.r(A)p.r(G)p.r(T)p.r(T)}$$$RNA1{StrandType:ss}|RNA2{StrandType:as}$,82%
13,RNA1{r(C)p.r(U)p.r(U)p.r(A)p.r(C)p.r(G)p.r(C)p.r(U)p.r(G)p.r(A)p.r(G)p.r(U)p.r(A)p.r(C)p.r(U)p.r(U)p.r(C)p.r(G)p.r(A)p.r(T)p.r(T)}|RNA2{r(U)p.r(C)p.r(G)p.r(A)p.r(A)p.r(G)p.[lna](U)p.r(A)p.r(C)p.r(U)p.r(C)p.r(A)p.r(G)p.r(C)p.r(G)p.r(U)p.r(A)p.r(A)p.r(G)p.r(T)p.r(T)}$$$RNA1{StrandType:ss}|RNA2{StrandType:as}$,81%
14,RNA1{r(C)p.r(U)p.r(U)p.r(A)p.r(C)p.r(G)p.r(C)p.r(U)p.r(G)p.r(A)p.r(G)p.r(U)p.r(A)p.r(C)p.r(U)p.r(U)p.r(C)p.r(G)p.r(A)p.r(T)p.r(T)}|RNA2{r(U)p.r(C)p.r(G)p.r(A)p.r(A)p.r(G)p.r(U)p.[lna](A)p.r(C)p.r(U)p.r(C)p.r(A)p.r(G)p.r(C)p.r(G)p.r(U)p.r(A)p.r(A)p.r(G)p.r(T)p.r(T)}$$$RNA1{StrandType:ss}|RNA2{StrandType:as}$,86%
15,RNA1{r(C)p.r(U)p.r(U)p.r(A)p.r(C)p.r(G)p.r(C)p.r(U)p.r(G)p.r(A)p.r(G)p.r(U)p.r(A)p.r(C)p.r(U)p.r(U)p.r(C)p.r(G)p.r(A)p.r(T)p.r(T)}|RNA2{r(U)p.r(C)p.r(G)p.r(A)p.r(A)p.r(G)p.r(U)p.r(A)p.[lna](C)p.r(U)p.r(C)p.r(A)p.r(G)p.r(C)p.r(G)p.r(U)p.r(A)p.r(A)p.r(G)p.r(T)p.r(T)}$$$RNA1{StrandType:ss}|RNA2{StrandType:as}$,85%
16,RNA1{r(C)p.r(U)p.r(U)p.r(A)p.r(C)p.r(G)p.r(C)p.r(U)p.r(G)p.r(A)p.r(G)p.r(U)p.r(A)p.r(C)p.r(U)p.r(U)p.r(C)p.r(G)p.r(A)p.r(T)p.r(T)}|RNA2{r(U)p.r(C)p.r(G)p.r(A)p.r(A)p.r(G)p.r(U)p.r(A)p.r(C)p.r(U)p.[lna](C)p.r(A)p.r(G)p.r(C)p.r(G)p.r(U)p.r(A)p.r(A)p.r(G)p.r(T)p.r(T)}$$$RNA1{StrandType:ss}|RNA2{StrandType:as}$,50%
17,RNA1{r(C)p.r(U)p.r(U)p.r(A)p.r(C)p.r(G)p.r(C)p.r(U)p.r(G)p.r(A)p.r(G)p.r(U)p.r(A)p.r(C)p.r(U)p.r(U)p.r(C)p.r(G)p.r(A)p.r(T)p.r(T)}|RNA2{r(U)p.r(C)p.r(G)p.r(A)p.r(A)p.r(G)p.r(U)p.r(A)p.r(C)p.r(U)p.r(C)p.[lna](A)p.r(G)p.r(C)p.r(G)p.r(U)p.r(A)p.r(A)p.r(G)p.r(T)p.r(T)}$$$RNA1{StrandType:ss}|RNA2{StrandType:as}$,89%
18,RNA1{r(C)p.r(U)p.r(U)p.r(A)p.r(C)p.r(G)p.r(C)p.r(U)p.r(G)p.r(A)p.r(G)p.r(U)p.r(A)p.r(C)p.r(U)p.r(U)p.r(C)p.r(G)p.r(A)p.r(T)p.r(T)}|RNA2{r(U)p.r(C)p.r(G)p.r(A)p.r(A)p.r(G)p.r(U)p.r(A)p.r(C)p.r(U)p.r(C)p.r(A)p.[lna](G)p.r(C)p.r(G)p.r(U)p.r(A)p.r(A)p.r(G)p.r(T)p.r(T)}$$$RNA1{StrandType:ss}|RNA2{StrandType:as}$,65%
19,RNA1{r(C)p.r(U)p.r(U)p.r(A)p.r(C)p.r(G)p.r(C)p.r(U)p.r(G)p.r(A)p.r(G)p.r(U)p.r(A)p.r(C)p.r(U)p.r(U)p.r(C)p.r(G)p.r(A)p.r(T)p.r(T)}|RNA2{r(U)p.r(C)p.r(G)p.r(A)p.r(A)p.r(G)p.r(U)p.r(A)p.r(C)p.r(U)p.r(C)p.r(A)p.r(G)p.[lna](C)p.r(G)p.r(U)p.r(A)p.r(A)p.r(G)p.r(T)p.r(T)}$$$RNA1{StrandType:ss}|RNA2{StrandType:as}$,43%
20,RNA1{r(C)p.r(U)p.r(U)p.r(A)p.r(C)p.r(G)p.r(C)p.r(U)p.r(G)p.r(A)p.r(G)p.r(U)p.r(A)p.r(C)p.r(U)p.r(U)p.r(C)p.r(G)p.r(A)p.r(T)p.r(T)}|RNA2{r(U)p.r(C)p.r(G)p.r(A)p.r(A)p.r(G)p.r(U)p.r(A)p.r(C)p.r(U)p.r(C)p.r(A)p.r(G)p.r(C)p.[lna](G)p.r(U)p.r(A)p.r(A)p.r(G)p.r(T)p.r(T)}$$$RNA1{StrandType:ss}|RNA2{StrandType:as}$,85%
